This is an account of results in patent US20240207285A1 (Melt Pharmaceuticals, Inc., priority 2022, published 2024).

The subject of data set [1] is healthy adult subjects. As to the kind of experiment: Phase 1 vital signs and pulse oximetry. It is filed as in vivo, human. The conditions noted are these: for Mean changes from baseline in systolic and diastolic blood pressures: MELT-100 3/25 mg and 6/25 mg (so in the source), midazolam 3.5 mg IV, ketamine 18 mg IV, each timepoint. The text has this: (§1) The Investigator evaluated safety using physical and oral examinations, O2 saturation (SpO2), vital sign measurements, clinical laboratory evaluations, electrocardiograms (ECGs), reported or observed adverse events (AEs), and assessments of neurocognitive function. Subjects were monitored for any AEs from the first dose through the end of the study.
(§2) Vital signs, clinical laboratory values (hematology, serum chemistry, and urinalysis), and 12-lead ECG parameters were summarized by treatment including any abnormal values flagged.

Data set [2] deals with healthy adult subjects. The data set can be described thus: Phase 1 adverse events. It is filed as in vivo, human.
Text: as §1
Adverse events were coded using the Medical Dictionary for Regulatory Activities (MedDRA, version 22.0, or later) terms and summarized by system organ class (SOC) and preferred term (PT) within SOC. The number and percentage of subjects reporting TEAEs were summarized by reported SOC and PT for each treatment and the population overall. TEAEs were also summarized by maximum severity and nearest relationship to study drug, by SOC and PT for each treatment.
A by-subject AE (including treatment-emergent) data listing, including but not limited to verbatim term, SOC, PT, severity, and relationship to study treatment, was provided. Deaths, SAEs, and other significant AEs, including those leading to early termination of study treatments were listed.

In data set [3] the test system is healthy adult subjects. The data set can be described thus: Phase 1 sedation level by Ramsay sedation scale (RSS). It is filed as in vivo, human. As for the experimental part: (§3) Pharmacodynamic parameters included sedation, defined as time to onset of sedation and sedation level, assessed using the Ramsay sedation scale (RSS), and cardiodynamics assessed by QTcF, heart rate, and PR and QRS intervals, and T-wave morphology and U-wave presence, extracted from ECGs collected via Holter monitor from predose through 24 hours postdose.
All pharmacodynamic analyses were performed on data from the Safety Population. The RSS scores were summarized by treatment and by timepoint. Time to onset of sedation was summarized by treatment and presented graphically.

Data set [4] can be described thus: Phase 1 relative bioavailability study: plasma pharmacokinetics of midazolam, 1-hydroxymidazolam, ketamine and norketamine. As for the experimental part:
PK analysis was performed using noncompartmental methods in Phoenix WinNonlin® (Version 8.1, Certara, L.P.) in conjunction with the internet-accessible implementation of the Pharsight® Knowledgebase Server™ (PKSO; Version 4.0.4, Certara, L.P). PKSO provides protected and structured storage, audit trails, and version control for study data, analyses, and related files, supporting 21 CFR Part 11 compliance. The analysis was performed in accordance with the Statistical Analysis Plan (Version 1.0, 5 Jan. 2021).
During the PK analysis, concentrations below the limit of quantitation (BLQ) up to the time of the first quantifiable concentration were treated as zero. Embedded (values between 2 quantifiable concentrations) and terminal BLQ concentrations were treated as “missing”. Calculation of the PK characteristics were based on actual elapsed times [h] (relative to time of dose).
All PK analyses were performed on the data from the PK Analysis Population. […] The ANOVA model included factors for sequence, subject within sequence, treatment, and period.

Data set [5] deals with healthy adult subjects. As to the kind of experiment: Phase 1 electrocardiograms / cardiodynamics. The conditions noted are these: one subject, 24 hours after midazolam 3.5 mg IV; not considered clinically significant. It is filed as in vivo, human. How it is done:
as §3
An analysis of categorical outliers was performed for changes in heart rate; PR, QRS, and QTcF intervals; T-wave morphology; and U-wave presence.
as §2

The mark [6] stands for this setting: 5 minutes after ketamine 18 mg IV.
Where [7] appears, read: Treatment D: ketamine 18 mg IV, mean.
[8] abbreviates: Treatment C: midazolam 3.5 mg IV, mean.

By half-life is commonly meant the time needed for the level to fall by half in the phase considered. Higher therefore signals slow loss. What is called AUC(0-t) is the area under the concentration-time curve up to a stated or last time point. Low values mean less exposure, high ones more exposure. Usually AUC(0-inf) stands for total exposure, with the tail of the curve extrapolated. Read a high AUC(0-inf) as high exposure. What is called Cmax is the peak of the concentration-time curve. What is called Tmax is the time at which the peak concentration occurs. In the case of `CNC1(c2ccccc2Cl)CCCCC1=O` (centres unmarked) [Ketamine, 2-(2-chlorophenyl)-2-(methylamino)cyclohexanone], the “Mean changes from baseline in systolic and diastolic blood pressures” value in data set [1] is reported as “highest at the 10-minute timepoint”. For the same compound, the “Treatment-related AEs of hypertension” value in data set [2] (ketamine 18 mg IV) was found to be 3 AEs. In data set [3] (setting [6]), the “Subjects with RSS score of 1” value is 1 (4.0%) subjects (%) and the “Subjects with RSS score of 5” value is on record as 1 (4.0%) subjects (%). In addition, the “Highest proportion of subjects with RSS scores >2 postdose” value in data set [3] (ketamine 18 mg IV) is about 8%. Also, in data set [4] (setting [7]), the “AUCExtrap, ketamine” value was determined as 9.64%; the “CL, ketamine” value was 59.9 L/h; the “Clast, ketamine” value was found to be 1.99 ng/mL. In data set [4] (human, plasma, iv, 18 mg), this compound gave a half-life of 618 min. In addition, in data set [4] (human, plasma, iv, 18 mg, AUC0-t, ketamine, Treatment D: ketamine 18 mg IV, mean), the AUC(0-t) came out at 283 ng·h/mL. Also, the AUC(0-inf) in data set [4] (human, plasma, iv, 18 mg, AUCinf, ketamine, Treatment D: ketamine 18 mg IV, mean) was 316 ng·h/mL. In data set [4] (human, plasma, iv, 18 mg, Cmax, ketamine, Treatment D: ketamine 18 mg IV, mean), the Cmax is 250 ng/mL. For the same compound, the AUC(0-t) in data set [4] (human, plasma, iv, 18 mg, GeoMean AUC0-t, ketamine, Ref (D) ketamine 18 mg IV, least squares geometric mean) is 277 ng·h/mL. Further, the AUC(0-inf) in data set [4] (human, plasma, iv, 18 mg, GeoMean AUCinf, ketamine, Ref (D) ketamine 18 mg IV, least squares geometric mean) was determined as 307 ng·h/mL. The peak level in data set [4] (human, plasma, iv, 18 mg, GeoMean Cmax, ketamine, Ref (D) ketamine 18 mg IV, least squares geometric mean) (Cmax) was 208 ng/mL. The Tmax in data set [4] (human, plasma, iv, 18 mg, Tmax, ketamine, Treatment D: ketamine 18 mg IV, median (range)) was 10 min.
In general, Vd refers to a proportionality between amount in the body and measured concentration, not a real space. The term clearance denotes the volume of plasma or blood freed of the substance per unit of time. Higher therefore signals efficient removal. Consider `Cc1ncc2n1-c1ccc(Cl)cc1C(c1ccccc1F)=NC2` [Midazolam, 8-chloro-6-(2-fluorophenyl)-1-methyl-4H-imidazo[1,5-a][1,4]benzodiazepine], for which, in data set [1], the “Mean changes from baseline in systolic and diastolic blood pressures” value was “minimal and similar”. In addition, the “Mean change from baseline in pulse oximetry” value in data set [1] (midazolam 3.5 mg IV at 10 minutes postdose, MELT-100 6/50 mg at 30 minutes postdose, minimal at 2 hours) is on record as “small mean decrease from baseline”. Further, the “Number of treatment-related AEs” value in data set [2] (midazolam 3.5 mg IV) was found to be 2 events. Also, the PR duration entry in data set [5] is “abnormal”. Moreover, the “Subjects with RSS scores of 3” value in data set [3] (5 minutes after midazolam 3.5 mg IV) is 2 (8.3%) subjects (%). The “Highest proportion of subjects with RSS scores >2 postdose” value in data set [3] (midazolam 3.5 mg IV) is about 54%. Moreover, in data set [4] (setting [8]), the “AUCExtrap, midazolam” value is 5.58%. Moreover, the “Clast, midazolam” value in data set [4] (setting [8]) is 0.963 ng/mL. For the same compound, the Vd in data set [4] (human, plasma, iv, 3.5 mg) was found to be 202 L. This compound also showed a clearance in data set [4] (human, plasma, iv, 3.5 mg) of 348 mL/min. This compound gave a half-life in data set [4] (human, plasma, iv, 3.5 mg) of 420 min. Besides, the AUC(0-t) in data set [4] (human, plasma, iv, 3.5 mg, AUC0-t, midazolam, Treatment C: midazolam 3.5 mg IV, mean) was determined as 168 ng·h/mL; in data set [4] (human, plasma, iv, 3.5 mg, GeoMean AUC0-t, midazolam, Ref (C) midazolam 3.5 mg IV, least squares geometric mean) it was 164 ng·h/mL. In addition, the total exposure AUC(0-inf) in data set [4] (human, plasma, iv, 3.5 mg, AUCinf, midazolam, Treatment C: midazolam 3.5 mg IV, mean) was 179 ng·h/mL; in data set [4] (human, plasma, iv, 3.5 mg, GeoMean AUCinf, midazolam, Ref (C) midazolam 3.5 mg IV, least squares geometric mean), 174 ng·h/mL. The Cmax was 146 ng/mL in data set [4] (human, plasma, iv, 3.5 mg, Cmax, midazolam, Treatment C: midazolam 3.5 mg IV, mean) and 127 ng/mL in data set [4] (human, plasma, iv, 3.5 mg, GeoMean Cmax, midazolam, Ref (C) midazolam 3.5 mg IV, least squares geometric mean). In addition, the Tmax is 11 min in data set [4] (human, plasma, iv, 3.5 mg, Median Tmax, midazolam, Treatment C: midazolam 3.5 mg IV) and 11 min in data set [4] (human, plasma, iv, 3.5 mg, Tmax, midazolam, Treatment C: midazolam 3.5 mg IV, median (range)).
